Test results as given in patent US8541406B2, “Thiadiazole derivatives for the treatment of neurodegenerative diseases” (NV reMYND, priority 2006, dated 2013).
“Also recorded” adds a separate entry of the source.

Each compound was assayed on M17-SYNwt cells (assay: α-synuclein cytotoxicity assay (LDH leakage from paraquat-treated cells)). Settings: Homo sapiens; Table 3, tested according to the procedure of example 12.
Format: cell-based, human
Protocol: 1,2,4-thiadazole compounds made according to the methods described herein were screened for activity using the α-synuclein cytotoxicity assay as described above. Dose responses were carried out on all compounds found to be active (10 point curves in duplicate).

Row | SMILES | EC50
1 | O=S(=O)(c1cccs1)N1CCN(c2nc(Cc3ccc(F)cc3)ns2)CC1 [Example 50, 1-[thiophen-2-ylsulfonyl]-4-[3-(4-fluoro-benzyl)-1,2,4-thiadiazol-5-yl]piperazine] | 0.468 µM

Same assay, conditions: Homo sapiens; inhibition of synuclein cytotoxicity, paraquat-treated M17-SYNwt cells, 10 point curves in duplicate

Row | SMILES | EC50
2 | Cc1ccccc1NC(=O)N1CCN(c2nc(Cc3ccc(F)cc3)ns2)CC1C (stereo not shown) [Compound 10, N-(2-methylphenyl)-4-[3-(4-fluorobenzyl)-1,2,4-thiadiazol-5-yl]-2-methylpiperazine-1-carboxamide] | 0.6 mg/L
3 | Cc1cccc(C)c1NC(=O)N1CCN(c2nc(Cc3ccc(F)cc3)ns2)CC1C (stereo not shown) [Compound 19, N-(2,6-dimethylphenyl)-4-[3-(4-fluorobenzyl)-1,2,4-thiadiazol-5-yl]-2-methylpiperazine-1-carboxamide] | 0.2 mg/L
4 | Cc1ccc(Cc2nsc(N3CCN(S(=O)(=O)c4cc(Cl)ccc4Cl)C(C)C3)n2)cc1 (stereo not shown) [Compound 36, 1-[2,5-dichlorophenylsulfonyl]-4-[3-(4-methylbenzyl)-1,2,4-thiadiazol-5-yl]-2-methylpiperazine] | 0.1 mg/L
5 | CC1CN(c2nc(Cc3ccc(F)cc3)ns2)CCN1S(=O)(=O)c1cccc(C(F)(F)F)c1 (stereo not shown) [Compound 46, 1-[3-trifluorophenylsulfonyl]-4-[3-(4-fluorobenzyl)-1,2,4-thiadiazol-5-yl]-2-methylpiperazine] | 1.34 mg/L
6 | O=S(=O)(c1ccc2ccccc2c1)N1CCN(c2nc(Cc3ccc(Cl)cc3)ns2)CC1 [Compound 52, 1-[2-naphthylsulfonyl]-4-[3-(4-chlorobenzyl)-1,2,4-thiadiazol-5-yl]piperazine] | 0.1 mg/L
7 | CC1CN(c2nc(Cc3ccc(F)cc3)ns2)CCN1C(=O)CCc1ccccc1 (stereo not shown) [Compound 89, 1-(3-phenylpropanoyl)-4-[3-(4-fluorobenzyl)-1,2,4-thiadiazol-5-yl]-2-methylpiperazine] | 0.6 mg/L
8 | CCCCCCc1ccc(C(=O)NCCN2CCN(c3nc(Cc4ccc(F)cc4)ns3)CC2)cc1 [Compound 96, 4-hexyl-N-{2-[4-[3-(4-fluorobenzyl)-1,2,4-thiadiazol-5-yl]piperazin-1-yl]ethyl}benzamide] | 0.8 mg/L
9 | CCCCCc1ccc(C(=O)N2CCN(c3nc(Cc4ccc(C)cc4)ns3)CC2C)cc1 (stereo not shown) [Compound 134, 1-(4-pentylbenzoyl)-4-[3-(4-methylbenzyl)-1,2,4-thiadiazol-5-yl]-2-methylpiperazine] | 0.3 mg/L
10 | Cc1ccc(C(=O)N2CCN(c3nc(Cc4ccc(F)cc4)ns3)CC2C)cc1 (stereo not shown) [Compound 139, 1-(4-methylbenzoyl)-4-[3-(4-fluorobenzyl)-1,2,4-thiadiazol-5-yl]-2-methylpiperazine] | 0.4 mg/L
11 | CC1CN(c2nc(Cc3ccc(F)cc3)ns2)CCN1C(=O)c1cccc(Br)c1 (stereo not shown) [Compound 142, 1-(3-bromobenzoyl)-4-[3-(4-fluorobenzyl)-1,2,4-thiadiazol-5-yl]-2-methylpiperazine] | 0.5 mg/L
12 | COc1ccc(S(=O)(=O)N2CCN(c3nc(Cc4ccc(F)c(C)c4)ns3)CC2)cc1 [Compound 204] | 0.001 mg/L
13 | O=S(=O)(c1ccc(O)cc1)N1CCN(c2nc(Cc3ccc(F)cc3)ns2)CC1 [Compound 217, 1-(4-hydroxybenzenesulfonyl)-4-[3-(4-fluoro-benzyl)-1,2,4-thiadiazol-5-yl]piperazine] | 0.033 mg/L

Same assay, conditions: Table 3, tested according to the procedure of example 12

Row | SMILES | % inh.
14 | COc1ccc(S(=O)(=O)N2CCN(c3nc(Cc4cccc(OC)c4)ns3)CC2C)cc1 (stereo not shown) [Compound 208, 1-[4-methoxyphenylsulfonyl]-4-[3-(3-methoxybenzyl)-1,2,4-thia-diazol-5-yl]-2-methyl-piperazine] | 92%
15 | O=S(=O)(c1cccs1)N1CCN(c2nc(Cc3ccc(F)cc3)ns2)CC1 [Example 50, 1-[thiophen-2-ylsulfonyl]-4-[3-(4-fluoro-benzyl)-1,2,4-thiadiazol-5-yl]piperazine] | 89%

Same assay, conditions: paraquat-treated M17-SYNwt cells, dose response

Row | SMILES | reduction of LDH activity in the medium (inhibition of α-synuclein mediated toxicity), FIG. 2
16 | Cc1cccc(C)c1NC(=O)N1CCN(c2nc(Cc3ccc(F)cc3)ns2)CC1C (stereo not shown) [Compound 19, N-(2,6-dimethylphenyl)-4-[3-(4-fluorobenzyl)-1,2,4-thiadiazol-5-yl]-2-methylpiperazine-1-carboxamide] | inhibition of α-synuclein mediated toxicity; also recorded: able, in a dose-dependent manner, to reduce LDH activity in the medium

Same assay, conditions: percent inhibition of synuclein cytotoxicity, LDH release, paraquat-treated M17-SYNwt cells, at most effective concentration of test cmpd

Row | SMILES | % I
17 | CCOc1ccc(NC(=O)N2CCN(c3nc(Cc4ccc(F)cc4)ns3)CC2C)cc1 (stereo not shown) [Compound 14, N-(4-ethoxyphenyl)-4-[3-(4-fluorobenzyl)-1,2,4-thiadiazol-5-yl]-2-methylpiperazine-1-carboxamide] | 70%
18 | CC1CN(c2nc(Cc3ccc(F)cc3)ns2)CCN1C(=O)Nc1ccc(F)c(F)c1 (stereo not shown) [Compound 26, N-(3,4-difluorophenyl)-4-[3-(4-fluorobenzyl)-1,2,4-thiadiazol-5-yl]-2-methylpiperazine-1-carboxamide] | 70%
19 | CC1CN(c2nc(Cc3ccc(F)cc3)ns2)CCN1S(=O)(=O)c1cccc(C(F)(F)F)c1 (stereo not shown) [Compound 46, 1-[3-trifluorophenylsulfonyl]-4-[3-(4-fluorobenzyl)-1,2,4-thiadiazol-5-yl]-2-methylpiperazine] | 64%
20 | CC1CN(c2nc(Cc3ccc(F)cc3)ns2)CCN1S(=O)(=O)c1ccc(C(C)(C)C)cc1 (stereo not shown) [Compound 54, 1-[4-tert-butylphenylsulfonyl]-4-[3-(4-fluorobenzyl)-1,2,4-thiadiazol-5-yl]-2-methylpiperazine] | 60%
21 | CC(C)(C)c1ccc(S(=O)(=O)N2CCN(c3nc(Cc4ccc(F)cc4)ns3)CC2)cc1 [Compound 61, 1-[4-ter-butylphenylsulfonyl]-4-[3-(4-fluorobenzyl)-1,2,4-thiadiazol-5-yl]piperazine] | 47%
22 | O=S(=O)(Cc1ccccc1)N1CCN(c2nc(Cc3ccc(Cl)cc3)ns2)CC1 [Compound 76, 1-(benzylsulfonyl)-4-[3-(4-chlorobenzyl)-1,2,4-thiadiazol-5-yl]piperazine] | 40%
23 | CCCCS(=O)(=O)N1CCN(c2nc(Cc3ccc(Cl)cc3)ns2)CC1 [Compound 81, 1-(butylsulfonyl)-4-[3-(4-chlorobenzyl)-1,2,4-thiadiazol-5-yl]piperazine] | 80%
24 | CCCCCCCCS(=O)(=O)N1CCN(c2nc(Cc3ccc(C)cc3)ns2)CC1 [Compound 82, 1-(octylsulfonyl)-4-[3-(4-methylbenzyl)-1,2,4-thiadiazol-5-yl]piperazine] | 50%
25 | Cc1ccc(Cc2nsc(N3CCN(C/C=C/c4ccccc4)CC3)n2)cc1 [Compound 91, 1-[3-phenylprop-2-enyl]-4-[3-(4-methylbenzyl)-1,2,4-thiadiazol-5-yl]piperazine] | 90%
26 | CCCCCc1ccc(C(=O)NCCN2CCN(c3nc(Cc4ccc(F)cc4)ns3)CC2)cc1 [Compound 94, 4-pentyl-N-{2-[4-[3-(4-fluorobenzyl)-1,2,4-thiadiazol-5-yl]piperazin-1-yl]ethyl}benzamide] | 90%
27 | O=C(NCCN1CCN(c2nc(Cc3ccc(F)cc3)ns2)CC1)c1ccc(F)cc1 [Compound 102, 4-fluoro-N-{2-[4-[3-(4-fluorobenzyl)-1,2,4-thiadiazol-5-yl]piperazin-1-yl]ethyl}benzamide] | 80%
28 | O=C(Cc1ccc(F)cc1)NCCN1CCN(c2nc(Cc3ccc(F)cc3)ns2)CC1 [Compound 107, 2-(4-fluorophenyl)-N-{2-[4-[3-(4-fluorobenzyl)-1,2,4-thiadiazol-5-yl]piperazin-1-yl]ethyl}acetamide] | 80%
29 | CC1CN(c2nc(Cc3ccc(F)cc3)ns2)CCN1C(=O)c1cccc(C(F)(F)F)c1 (stereo not shown) [Compound 145, 1-(3-trifluoromethylbenzoyl)-4-[3-(4-fluorobenzyl)-1,2,4-thiadiazol-5-yl]-2-methylpiperazine] | 60%
30 | O=C(c1cccc(F)c1)N1CCN(c2nc(Cc3ccc(Cl)cc3)ns2)CC1 [Compound 157, 1-(3-fluorobenzoyl)-4-[3-(4-chlorobenzyl)-1,2,4-thiadiazol-5-yl]piperazine] | 70%
31 | Cc1ccc(Cc2nsc(N3CCN(C(=O)c4ccc(Br)cc4)CC3)n2)cc1 [Compound 164, 1-(4-bromobenzoyl)-4-[3-(4-methylbenzyl)-1,2,4-thiadiazol-5-yl]piperazine] | 60%
32 | O=C(c1ccccc1)N1CCN(c2nc(Cc3ccc(F)cc3)ns2)CC1 [Compound 181, 1-benzoyl-4-[3-(4-fluorobenzyl)-1,2,4-thiadiazol-5-yl]piperazine] | 60%
33 | CCC(=O)Oc1ccc(S(=O)(=O)N2CCN(c3nc(Cc4ccc(F)cc4)ns3)CC2)cc1 [Compound 200, 1-(4-propionyloxy)benzene-sulfonyl-4-[3-(4-fluoro-benzyl)-1,2,4-thiadiazol-5-yl]piperazine] | 80%
34 | COc1ccc(S(=O)(=O)N2CCN(c3nc(Cc4ccc(F)c(C)c4)ns3)CC2)cc1 [Compound 204] | 90%
